The target in assay [1] is T1, angiotensin II type 1 receptor (Oryctolagus cuniculus, UniProt P34976).
T1 construct: By using a specimen of isolated rabbit blood vessels; from tissue; host or cells: rabbit thoracic aorta ring (New Zealand White, male)
T1 sequence (P34976 1-359): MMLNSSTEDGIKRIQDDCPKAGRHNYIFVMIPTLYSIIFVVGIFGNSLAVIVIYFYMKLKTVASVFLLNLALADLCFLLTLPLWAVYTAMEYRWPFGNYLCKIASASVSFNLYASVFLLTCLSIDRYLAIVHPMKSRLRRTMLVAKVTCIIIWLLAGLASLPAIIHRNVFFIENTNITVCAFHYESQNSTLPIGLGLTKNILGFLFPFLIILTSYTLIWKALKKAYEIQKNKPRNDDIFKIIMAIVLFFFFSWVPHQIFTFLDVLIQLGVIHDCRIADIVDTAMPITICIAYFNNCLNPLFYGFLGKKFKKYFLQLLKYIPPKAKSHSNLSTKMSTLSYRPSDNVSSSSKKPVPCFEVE
The experiment in a line: Angiotensin II antagonistic activity in isolated rabbit blood vessels. The note with it: angiotensin II (10 nM)-induced contraction of rabbit thoracic aorta ring. The essentials: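 Contraction of isolated rabbit vessel induced by angiotensin II, in a magnus bath at 37° C gassed with 95% O2/5% CO2. Responses expressed as % of the 10 nM angiotensin II contraction without compound, and IC50 calculated from the concentration-response curve.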

The target of a further assay is T2, human PPARγ2 (Homo sapiens, UniProt P37231).
T2 construct: the amino acids 182 to 505 of human PPARγ2; expressed in transfected cells; host or cells: COS7 cells
Put plainly: PPARγ activation activity, Gal4 chimera luciferase transfection assay using COS7 cells. The format is cell-based. Particulars: for EC50 / Emax: COS7 cells; for EC50: Gal4-human PPARγ2 LBD chimera, luciferase reporter, 16 hours, read-out: EC50; for Emax: COS-7, 16 h, maximum activity strength relative to the maximum activity of rosiglitazone, read-out: % MAX vs Rosiglitazone. As for the experimental part: The agonistic activity of the compounds of the invention on PPARγ was measured based on the transfection assay using COS7 cells (DS Pharma Biomedical Co., Ltd., Osaka, Japan), which are the cell line derived from the kidney of the African green monkey. COS7 cells were cultured under 5% CO2 concentration, and DMEM medium containing 10% fetal bovine serum, glutamic acid, and antibiotics was used as a medium.
As an expression vector, a chimera in which DNA binding domain of Gal4, which is a yeast transcription factor, and ligand binding domain of human PPAR^γ2 are fused, i.e., a fused product between the amino acids 1 to 147 of Gal4 transcription factor and the amino acids 182 to 505 of human PPARγ2, was used. Furthermore, as a reporter vector, a firefly luciferase containing five copies of Gal4 recognition sequence in the promoter region was used. Plasmid transfection to the cells was performed according to a method which uses jetPEI (trade name, manufactured by Funakoshi Co., Ltd., Tokyo, Japan). Furthermore, β-galactosidase expression vector was employed as an internal standard.
After the transfection of the cells, the medium was replaced with a DMEM medium (containing 1% serum) added with the compound, and the cells were further cultured for 16 hours. After that, the luciferase activity and β-galactosidase activity in the cell lysis solution were measured.
For the present test, dimethyl sulfoxide (DMSO) was used for dissolution and dilution of the test compounds, and during the cell treatment, the DMSO concentration in DMEM medium (containing 1% serum) was adjusted to 0.1%. As a positive compound, rosiglitazone (trade name, manufactured by ALEXIS Corporation, Switzerland) was used. […] The 50% effective concentration of the test compound (EC50, 50% effect concentration) was calculated by using SAS Preclinical Package Ver5.0 (trade name, manufactured by SAS institute Japan Co., Tokyo, Japan), which is a statistical analysis program.
In general terms: Reporter assays use an easily measured gene product as a stand-in for the process of interest.

T2 sequence (P37231 182-505): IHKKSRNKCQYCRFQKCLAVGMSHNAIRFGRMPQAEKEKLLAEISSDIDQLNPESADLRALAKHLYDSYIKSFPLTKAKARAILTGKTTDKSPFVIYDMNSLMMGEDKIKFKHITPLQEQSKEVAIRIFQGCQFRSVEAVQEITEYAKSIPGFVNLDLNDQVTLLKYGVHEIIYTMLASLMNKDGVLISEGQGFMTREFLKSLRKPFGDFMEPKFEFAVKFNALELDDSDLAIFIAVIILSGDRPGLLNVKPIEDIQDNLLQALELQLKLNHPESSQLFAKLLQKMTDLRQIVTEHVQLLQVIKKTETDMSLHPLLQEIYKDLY
T2 sequence (P04386 1-147 partner limits assumed): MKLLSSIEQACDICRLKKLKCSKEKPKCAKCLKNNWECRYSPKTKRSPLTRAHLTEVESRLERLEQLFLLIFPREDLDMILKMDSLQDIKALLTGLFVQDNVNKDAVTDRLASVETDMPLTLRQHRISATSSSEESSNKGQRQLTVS

As a reminder, the IC50 is the concentration that inhibits the measured activity by half. Usually EC50 stands for the concentration needed to bring the measured effect to its halfway point. In assay [1], `CCCCc1nc(C)n(-c2ccnn2C)c(=O)c1Cc1ccc(-c2ccccc2-c2nnn[nH]2)cc1` [Example 64, 5-{[2′-(1H-tetrazol-5-yl)biphenyl-4-yl]methyl}-6-butyl-2-methyl-3-(1-methyl-1H-pyrazol-5-yl)pyrimidin-4 (3H)-one] registered an IC50 of 652 nM. Besides, the concentration giving a half-maximal response (EC50) at human PPARγ2 stood at 3300 nM.
As for `CCCCc1nc(C)n(-c2ccc3ccccc3n2)c(=O)c1Cc1ccc(-c2ccccc2-c2nnn[nH]2)cc1` [Example 66, 5-{[2′-(1H-tetrazol-5-yl)biphenyl-4-yl]methyl}-6-butyl-2-methyl-3-(quinolin-2-yl)pyrimidin-4 (3H)-one], half-maximal inhibition in assay [1] (IC50) required 432 nM. On human PPARγ2, the EC50 worked out at 820 nM and the Emax was determined as 55.5%. On human PPARγ2 (maximum PPARγ activity, telmisartan 30 to 50% of rosiglitazone under the same condition), the “maximum activity compared with telmisartan” value is recorded as “the same or greater than that of telmisartan”.
In assay [1], `CCCCc1nc(C)n(-c2nccc3ccccc23)c(=O)c1Cc1ccc(-c2ccccc2-c2nnn[nH]2)cc1` [Example 67, 5-{[2′-(1H-tetrazol-5-yl)biphenyl-4-yl]methyl}-6-butyl-3-(isoquinolin-1-yl)-2-methylpyrimidin-4 (3H)-one] returned a half-maximal inhibitory concentration (IC50) of less than 10000 nM. Further, the EC50 on human PPARγ2 was determined as 740 nM.
`CCCCc1nc(C)n(-c2cc3ccccc3cn2)c(=O)c1Cc1ccc(-c2ccccc2-c2nnn[nH]2)cc1` [Example 68, 5-{[2′-(1H-tetrazol-5-yl)biphenyl-4-yl]methyl}-6-butyl-3-(isoquinolin-3-yl)-2-methylpyrimidin-4 (3H)-one] yielded an IC50 in assay [1] of 223 nM. Besides, on human PPARγ2, the EC50 was determined as 2610 nM.
In assay [1], `CCCCc1nc(C)n(-c2nc3ccccc3n2C)c(=O)c1Cc1ccc(-c2ccccc2-c2nnn[nH]2)cc1` [Example 69, 5-{[2′-(1H-tetrazol-5-yl)biphenyl-4-yl]methyl}-6-butyl-2-methyl-3-(1-methyl-1H-benzimidazol-2-yl)pyrimidin-4 (3H)-one] yielded an IC50 of 958 nM. At human PPARγ2, the EC50 was 2690 nM and the Emax is 31.6%.

Source of the values: patent US8664226B2, “Compound having 3-heteroarylpyrimidin-4-(3H)-one structure and pharmaceutical preparation containing same” (Kowa Company, Ltd., priority 2009, dated 2014).
